Values of other authors in patent US12018199B2, “Fire retardant and fire blocking composition for use in forest fires, and method of making same” (priority 2020, dated 2024).
Where two headings read alike, the source gives them in different places.

Conditions: in water

Solubility (0 °C): 66.7 g/100 g of water
Solubility (20 °C): 108 g/100 g of water
Solubility (40 °C): 167 g/100 g of water
Solubility (60 °C): 251 g/100 g of water
Solubility (80 °C): 400 g/100 g of water
Solubility (100 °C): 733 g/100 g of water
Compound: NC(N)=O [Urea, urea]
